According to patent US12359203B2, “Combination vectors and methods for treating cancer” (American Gene Technologies International Inc., priority 2016, dated 2025):

Key:
human CD47 = assay: CD47 mRNA expression in Hep3B cells (quantitative RT-PCR); assay type: cell-based; conditions: 48 hours after transduction, mRNA normalized to actin, FIG. 7A
Description: Functional Assay: The effect of different CD47 shRNA targeting sequences on CD47 expression was determined by measuring mRNA expression. Hep3B hepatocellular carcinoma cells were transduced with a lentiviral vector containing CD47 shRNA sequences. After 48 hours, cells were lysed and RNA was extracted using the RNeasy mini kit from Qiagen. cDNA was then synthesized from RNA using SuperScript VILO from Invitrogen. The samples were then analyzed by quantitative RT-PCR using an Applied Biosystems StepOne PCR machine. CD47 expression was detected with SYBR Green from Invitrogen using the forward primer (5′-[…]-3′) (SEQ ID NO: 63) and reverse primer (5′-GCCTCTTGACATTCTCCTC-3′) (SEQ ID NO: 64). The samples were normalized by measuring actin expression using the forward primer (5′-AGCGCGGCTACAGCTTCA-3′) (SEQ ID NO: 61) and reverse primer (5′-[…]-3′) (SEQ ID NO: 65). The relative expression of CD47 was determined by its Ct value normalized to the level of actin for each sample.

PC3 tumors = assay: PC3 tumor growth in NOD/SCID mice, transduced cells with or without zoledronic acid; assay type: in vivo; conditions: single dose of zoledronic acid
Description: Protocol overview for co-administration of LV-shRNA-FDPS (farnesyl diphosphate synthase) with or without zoledronic acid in mice implanted with human prostate cancer cell line PC3. Tumor cells were cultured in vitro, then transduced with lentivirus vector control with a scrambled sequence (nonfunctional) shRNA insert and an expression cassette for firefly luciferase, or LV-FDPS with a shRNA capable of reducing expression of FDPS mRNA and an expression cassette for firefly luciferase. The transduced tumor cells were implanted on the flank of immune deficient mice by subcutaneous injection. Once tumors reached approximately 200 mm^3 volume, all mice receive a single dose of zoledronic acid (100 micrograms per kilogram body weight, which is similar to a standard human dose) in saline. 7 days after zoledronic acid injection, an imaging study was repeated to measure volume and photon intensity of individual tumors.
Day—4: Material Preparation and Delivery. Prepare lenti-vector control and lenti-shRNA-FDPS transduced PC3 cells. • 1. […]
Effects of LV-shRNA-FDPS with or without zoledronic acid on PC3 tumor growth in NOD/SCID mice. […] A bioluminescence imaging study on Day 8 determined the average tumor sizes prior to zoledronic acid treatment (FIG. 10A). The photon intensity for tumors was measured with a CCD light capture system.

human cMyc = assay: cMyc mRNA expression in HepG2 cells (quantitative PCR); assay type: cell-based; conditions: 48 hours after transduction, mRNA normalized to actin, FIG. 8A
Description: (§1) Vector Construction: For cMyc shRNA, oligonucleotide sequences containing BamHI and EcoRI restriction sites were synthesized by MWG operon. Oligonucleotide sequences were annealed by incubation at 70 degrees Celsius and cooling to room temperature. Annealed oligonucleotides were digested with the restriction enzymes BamHI and EcoRI for one hour at 37 degrees Celsius and then the enzymes were heat-inactivated at 70 degrees Celsius for 20 minutes. In parallel, the lentiviral vector was digested with the restriction enzymes BamHI and EcoRI for one hour at 37 degrees Celsius. […] The DNA concentration was determined and the vector to oligo sequence was ligated in the ratio 3:1 insert to vector. […] Cells were collected after 2-4 days and protein and RNA was analyzed for cMyc expression.
Functional Assay: The effect of different cMyc shRNA targeting sequences on cMyc expression was determined by measuring mRNA expression. […] The samples were then analyzed by quantitative PCR using an Applied Biosystems StepOne PCR machine. cMyc expression was detected with SYBR Green from Invitrogen using the forward primer (5′-GGACTATCCTGCTGCCAA-3′) (SEQ ID NO: 69) and reverse primer (5′-GCCTCTTGACATTCTCCTC-3′) (SEQ ID NO: 64). […] The relative expression of cMyc was determined by its Ct value normalized to the level of actin for each sample.

cMyc = cMyc immunoblot in SNU449 cells infected with lentiviral vectors; assay type: cell-based, human; conditions: 48 hours, FIG. 8B
Description: After 48 hours, cells were lysed and an immunoblot was performed using an anti-cMyc (Santa Cruz) and an anti-actin (Sigma) antibody for a protein loading control.

human FDPS = assay: Functional assay for FDPS mRNA reduction (quantitative RT-PCR); assay type: cell-based; conditions: HepG2 cells, 48 hours after transduction, mRNA normalized to actin; FIG. 4A
Description: as §1, with “FDPS” for “cMyc”
Functional Assay for mRNA Reduction: The effect of different FDPS short homology RNA (shRNA) targeting sequences on FDPS expression was determined by measuring mRNA expression. […] The samples were then analyzed by quantitative RT-PCR using an Applied Biosystems StepOne PCR machine. FDPS expression was detected with SYBR Green from Invitrogen using the forward primer (5′-[…]-3′) (SEQ ID NO: 59) and reverse primer (5′-[…]-3′) (SEQ ID NO: 60) with standard conditions for polymerase chain reaction analysis. […] The relative expression of FDPS was determined by its Ct value normalized to the level of actin for each sample.

FDPS = FDPS immunoblot in HepG2 cells infected with lentiviral vectors; assay type: cell-based, human; conditions: 48 hours, FIG. 4B
Description: HepG2 human hepatocellular carcinoma cells were infected with lentiviral vectors containing either the H1 promoter and a FDPS shRNA (SEQ ID NO: 4) sequence or the EF-1alpha promoter and the following miR30-based FDPS sequences:
After 48 hours, cells were lysed and an immunoblot was performed using an anti-FDPS (Thermo Scientific) and an anti-actin (Sigma) antibody for a protein loading control. […] Treatment with the miR30-based FDPS sequences decreased FDPS expression.

CD47 sequence 3: CD47 shRNA, SEQ ID NO: 7 (DNA CCTCCTTCGTCATTGCCATCTCGAGATGGCAATGACGAAGGAGGTTTTT)
relative expression level of human CD47 (human CD47): most significant inhibition

O=P(O)(O)C(O)(Cn1ccnc1)P(=O)(O)O [zoledronic acid]
toxicity in mice (PC3 tumors): not toxic

cMyc shRNA Sequence 2: cMyc shRNA, SEQ ID NO: 11 (DNA GCGAACACACAACGTCTTGGACTCGAGTCCAAGACGTTGTGTGTTCGCTTTT)
relative expression level of human cMyc (human cMyc): most significant inhibition

cMyc shRNA Sequence 4: cMyc shRNA, SEQ ID NO: 13; used in FIG. 8B (GAGAATGTCAAGAGGCGAACACTCGAGTGTTCGCCTCTTGACATTCTCTTTTT)
cMyc protein expression (cMyc): significantly decreased

CD47 sequence 1: CD47 shRNA, SEQ ID NO: 5 (DNA GGTGAAACGATCATCGAGCCTCGAGGCTCGATGATCGTTTCACCTTTTT)
relative expression level of human CD47 (human CD47): most significant inhibition

FDPS-2: FDPS shRNA, SEQ ID NO: 2 (DNA GCAGGATTTCGTTCAGCACTTCTCGAGAAGTGCTGAACGAAATCCTGCTTTTT)
relative expression level of human FDPS (human FDPS): most significant inhibition

FDPS-4: FDPS shRNA, SEQ ID NO: 4; used with H1 promoter in FIG. 4B (DNA GCAGAAGGAGGCTGAGAAAGTCTCGAGACTTTCTCAGCCTCCTTCTGCTTTTT)
relative expression level of human FDPS (human FDPS): most significant inhibition | FDPS protein expression (FDPS): significantly decreased
